In patent US7491794B2, “Macrocyclic compounds as inhibitors of viral replication” (Intermune, Inc., priority 2003, dated 2009) one finds EC50 and IC50 data, which are given here for 7 compounds.

For assay [1], the system named is HCV sub-genomic replicon, GS4.3. Nature of the assay: Quantitation by ELISA of NPTII in the HCV sub-genomic replicon, GS4.3, Section B. The conditions noted are these: Hepatitis C virus; GS4.3 cells, 72 h incubation; read-out: Replicon EC50. The format is cell-based. The gist of the method:
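NPTII marker protein in lysates was quantified by ELISA read at 450 nm after 72 h inhibitor exposure (3-fold series, final DMSO 1%, G418-free medium) of HuH-7 cells stably harbouring the subgenomic HCV replicon. Values relative to DMSO-treated controls; 4-parameter curves gave EC50.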
For orientation: ELISA stands for enzyme-linked immunosorbent assay.

Another assay deals with T1, NS3-NS4A protease (Hepatitis C virus genotype 1a, UniProt P27958).
T1 construct: Recombinant E. coli or Baculovirus full-length NS3 was diluted to 3.33 μM with assay buffer; made in house; host or cells: E. coli or baculovirus (BV) system
T1 sequence (P27958 1027-1657): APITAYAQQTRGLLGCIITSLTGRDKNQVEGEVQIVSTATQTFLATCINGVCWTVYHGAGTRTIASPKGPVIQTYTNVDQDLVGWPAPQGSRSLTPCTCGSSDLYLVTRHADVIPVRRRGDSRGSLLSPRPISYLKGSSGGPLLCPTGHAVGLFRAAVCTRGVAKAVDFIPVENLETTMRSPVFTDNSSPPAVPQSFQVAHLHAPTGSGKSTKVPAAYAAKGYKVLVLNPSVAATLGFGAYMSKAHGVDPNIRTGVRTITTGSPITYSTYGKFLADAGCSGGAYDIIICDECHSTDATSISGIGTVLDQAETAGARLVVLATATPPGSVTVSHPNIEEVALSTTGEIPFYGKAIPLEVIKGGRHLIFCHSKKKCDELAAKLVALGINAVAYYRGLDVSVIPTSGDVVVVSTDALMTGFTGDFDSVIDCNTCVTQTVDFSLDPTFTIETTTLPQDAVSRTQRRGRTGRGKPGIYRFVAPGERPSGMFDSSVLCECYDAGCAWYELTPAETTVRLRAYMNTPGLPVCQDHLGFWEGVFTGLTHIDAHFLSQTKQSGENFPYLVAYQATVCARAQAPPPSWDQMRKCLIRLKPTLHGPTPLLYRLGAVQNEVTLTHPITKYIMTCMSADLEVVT
Nature of the assay: NS3-NS4A protease assay (NS3 inhibition assay, RETS1 substrate), Section B. The format is biochemical. As to conditions: read-out: NS3-NS4A IC50. The gist of the method:
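Kinetic fluorescence read (335 nm excitation, 495 nm emission, 30 min) of RETS1 cleavage by NS3/NS4A-2 complex, 2 nM E. coli or 3 nM baculovirus NS3, after 10 min room-temperature compound pre-incubation. Four-parameter-fit IC50s converted to Ki by Cheng–Prusoff, Ki=IC50/(1+[S]/Km).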

Usually EC50 stands for the concentration at which the effect is half-maximal. In general, IC50 refers to the concentration that gives 50% inhibition. For `CC(C)(C)OC(=O)N[C@H]1CCCCC/C=C\[C@@H]2C[C@@]2(C(=O)O)NC(=O)[C@@H]2C[C@@H](OC(=O)N3Cc4ccccc4C3)CN2C1=O` [AR00291871, (1S,4R,6S,14S,18R)-14-tert-Butoxycarbonylamino-18-(1,3-dihydro-isoindole-2-carbonyloxy)-2,15-dioxo-3,16-diaza-tricyclo[14.3.0.0^4,6]nonadec-7-ene-4-carboxylic acid], the EC50 in assay [1] was below 1000 nM. Also, the IC50 at NS3-NS4A protease was below 100 nM.
Take `O=C(NC1CCCC1)N[C@H]1CCCCC/C=C\[C@@H]2C[C@@]2(C(=O)NS(=O)(=O)C2CC2)NC(=O)[C@@H]2C[C@@H](OC(=O)N3CCc4ccccc4C3)CN2C1=O` [AR00320403, (1S,4R,6S,14S,18R)-3,4-Dihydro-1H-isoquinoline-2-carboxylic acid 14-(3-cyclopentyl-ureido)-4-cyclopropanesulfonylaminocarbonyl-2,15-dioxo-3,16-diaza-tricyclo[14.3.0.0^4,6]nonadec-7-en-18-yl ester]: in assay [1], the concentration for a half-maximal effect (EC50) is below 1000 nM. Further, on NS3-NS4A protease, the IC50 is below 100 nM.
With `CC(C)(C)OC(=O)N[C@H]1CCCCC/C=C\[C@@H]2C[C@@]2(C(=O)NS(=O)(=O)c2ccccc2)NC(=O)[C@@H]2C[C@@H](OC(=O)N3CCc4ccccc4C3)CN2C1=O` [AR00320547, (1S,4R,6S,14S,18R)-3,4-Dihydro-1H-isoquinoline-2-carboxylic acid 4-benzenesulfonylaminocarbonyl-14-tert-butoxycarbonylamino-2,15-dioxo-3,16-diaza-tricyclo[14.3.0.0^4,6]nonadec-7-en-18-yl ester], the concentration for a half-maximal effect (EC50) in assay [1] is below 100 nM. Besides, the concentration for half-maximal inhibition (IC50) on NS3-NS4A protease was below 100 nM.
Turning to `O=C(N[C@H]1CCCCC/C=C\[C@@H]2C[C@@]2(C(=O)O)NC(=O)[C@@H]2C[C@@H](OC(=O)N3Cc4ccccc4C3)CN2C1=O)O[C@@H]1CCOC1` [AR00320074, (1S,4R,6S,14S,18R)-18-(1,3-Dihydro-isoindole-2-carbonyloxy)-2,15-dioxo-14-(tetrahydro-furan-3R-yloxycarbonylamino)-3,16-diaza-tricyclo[14.3.0.0^4,6]nonadec-7-ene-4-carboxylic acid], the concentration for a half-maximal effect (EC50) in assay [1] is below 10000 nM. Also, the IC50 at NS3-NS4A protease is below 100 nM.
For `COc1cccc(CC(=O)N[C@H]2CCCCC/C=C\[C@@H]3C[C@@]3(C(=O)NS(=O)(=O)C3CC3)NC(=O)[C@@H]3C[C@@H](OC(=O)N4Cc5cccc(F)c5C4)CN3C2=O)c1` [AR00340178, (1S,4R,6S,14S,18R)-4-Fluoro-1,3-dihydro-isoindole-2-carboxylic acid 4-cyclopropanesulfonylaminocarbonyl-14-[2-(3-methoxy-phenyl)-acetylamino]-2,15-dioxo-3,16-diaza-tricyclo[14.3.0.0^4,6]nonadec-7-en-18-yl ester], the half-maximal effective concentration (EC50) in assay [1] was below 100 nM. Besides, the IC50 at NS3-NS4A protease is below 100 nM.
`C[C@@H]1CN(C(=O)O[C@@H]2C[C@H]3C(=O)N[C@]4(C(=O)NS(=O)(=O)C5CC5)C[C@H]4/C=C\CCCCC[C@H](NC(=O)OC(C)(C)C)C(=O)N3C2)Cc2ccccc21` [AR00333463, (1S,4R,6S,14S,18R)-4S-Methyl-3,4-dihydro-1H-isoquinoline-2-carboxylic acid 14-tert-butoxycarbonylamino-4-cyclopropanesulfonylaminocarbonyl-2,15-dioxo-3,16-diaza-tricyclo[14.3.0.0^4,6]nonadec-7-en-18-yl ester]: the EC50 in assay [1] was below 100 nM. Besides, the half-maximal inhibitory concentration (IC50) on NS3-NS4A protease was below 100 nM.
With `CC(C)(C)NC(=O)N[C@H]1CCCCC/C=C\[C@@H]2C[C@@]2(C(=O)NS(=O)(=O)C2CC2)NC(=O)[C@@H]2C[C@@H](OC(=O)N3Cc4ccc(Cl)cc4C3)CN2C1=O` [AR00320446, (1S,4R,6S,14S,18R)-5-Chloro-1,3-dihydro-isoindole-2-carboxylic acid 14-(3-tert-butyl-ureido)-4-cyclopropanesulfonylaminocarbonyl-2,15-dioxo-3,16-diaza-tricyclo[14.3.0.0^4,6]nonadec-7-en-18-yl ester], in assay [1], the concentration giving a half-maximal response (EC50) is below 100 nM. Moreover, the IC50 on NS3-NS4A protease is below 100 nM.
